Experimental data taken from PubChem BioAssay (NCI).
“And” between values parts separate entries of the source, which are not always exact repeats. Identical values can stand only once.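 Each compound was tested at five concentrations against cells in 96-well plates for 48 hours. Abbreviation: GI50, concentration required for 50% inhibition of growth. TGI: total growth inhibition.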

Legend:
Assay in all cases: DTP human tumour cell line panel, 48 h
BT-549 breast = tested on: BT-549 breast
K-562 leukemia = tested on: K-562 leukemia
HOP-92 NSCLC = tested on: HOP-92 NSCLC
SF-539 CNS = tested on: SF-539 CNS
SK-MEL-5 melanoma = tested on: SK-MEL-5 melanoma
NCI-H460 lung = tested on: NCI-H460 lung
RXF 393 renal = tested on: RXF 393 renal
SN12C renal = tested on: SN12C renal
NCI-H23 lung = tested on: NCI-H23 lung
SF-268 CNS = tested on: SF-268 CNS

Cn1c(=O)c(Oc2ccc(F)cc2F)cc2cnc(NC3CCOCC3)nc21
GI50 (BT-549 breast): > 25 µM
TGI (BT-549 breast): > 25 µM
GI50 (K-562 leukemia): > 25 µM
TGI (K-562 leukemia): > 25 µM
GI50 (HOP-92 NSCLC): 0.601 µM
TGI (HOP-92 NSCLC): 19.4 µM
GI50 (SF-539 CNS): > 25 µM
TGI (SF-539 CNS): > 25 µM
GI50 (SK-MEL-5 melanoma): > 25 µM
TGI (SK-MEL-5 melanoma): > 25 µM
GI50 (NCI-H460 lung): > 25 µM
TGI (NCI-H460 lung): > 25 µM
GI50 (RXF 393 renal): 24.3 µM
TGI (RXF 393 renal): > 25 µM
GI50 (SN12C renal): > 25 µM
TGI (SN12C renal): > 25 µM
GI50 (NCI-H23 lung): > 25 µM
TGI (NCI-H23 lung): > 25 µM
GI50 (SF-268 CNS): > 25 µM
TGI (SF-268 CNS): > 25 µM

Cc1ccsc1-c1ccc2c(c1)COC2(CCCN(C)C)c1ccc(F)cc1 (configuration not stated)
GI50 (BT-549 breast): 4.97 µM
TGI (BT-549 breast): 18.6 µM
GI50 (K-562 leukemia): 2.46 µM
TGI (K-562 leukemia): 8.05 µM
GI50 (HOP-92 NSCLC): 1.76 µM
TGI (HOP-92 NSCLC): 7.44 µM
GI50 (SF-539 CNS): 1.8 µM
TGI (SF-539 CNS): 3.4 µM
GI50 (SK-MEL-5 melanoma): 1.78 µM
TGI (SK-MEL-5 melanoma): 3.2 µM
GI50 (NCI-H460 lung): 1.77 µM
TGI (NCI-H460 lung): 3.49 µM
GI50 (RXF 393 renal): 2.76 µM
TGI (RXF 393 renal): 9.44 µM
GI50 (SN12C renal): 3.59 µM
TGI (SN12C renal): 15.5 µM
GI50 (NCI-H23 lung): 5.39 µM
TGI (NCI-H23 lung): 18.1 µM
GI50 (SF-268 CNS): 4.28 µM
TGI (SF-268 CNS): 17.1 µM

NC(=O)c1cc(Br)ccc1NC(=O)/C=C/c1ccccc1
GI50 (BT-549 breast): 4.97 µM
TGI (BT-549 breast): 28.7 µM
GI50 (K-562 leukemia): 0.829 µM
TGI (K-562 leukemia): > 34.4 µM
GI50 (HOP-92 NSCLC): 5.34 µM
TGI (HOP-92 NSCLC): 25.8 µM
GI50 (SF-539 CNS): 1.24 µM
TGI (SF-539 CNS): 8.57 µM
GI50 (SK-MEL-5 melanoma): 0.608 µM
TGI (SK-MEL-5 melanoma): > 60.2 µM
GI50 (NCI-H460 lung): 1.42 µM
TGI (NCI-H460 lung): > 100 µM
GI50 (RXF 393 renal): 1.15 µM
TGI (RXF 393 renal): 5.9 µM
GI50 (SN12C renal): 4.9 µM
TGI (SN12C renal): > 100 µM
GI50 (NCI-H23 lung): 10.8 µM
TGI (NCI-H23 lung): > 100 µM
GI50 (SF-268 CNS): 2.85 µM
TGI (SF-268 CNS): > 39.4 µM

COc1ccc(-c2cn(-c3cc(OC)c(OC)c(OC)c3)c(=O)[nH]2)cc1OC
GI50 (BT-549 breast): > 100 µM
TGI (BT-549 breast): > 100 µM
GI50 (K-562 leukemia): > 100 µM
TGI (K-562 leukemia): > 100 µM
GI50 (HOP-92 NSCLC): > 100 µM
TGI (HOP-92 NSCLC): > 100 µM
GI50 (SF-539 CNS): > 100 µM
TGI (SF-539 CNS): > 100 µM
GI50 (SK-MEL-5 melanoma): > 100 µM
TGI (SK-MEL-5 melanoma): > 100 µM
GI50 (NCI-H460 lung): > 100 µM
TGI (NCI-H460 lung): > 100 µM
GI50 (RXF 393 renal): > 100 µM
TGI (RXF 393 renal): > 100 µM
GI50 (SN12C renal): > 100 µM
TGI (SN12C renal): > 100 µM
GI50 (NCI-H23 lung): > 100 µM
TGI (NCI-H23 lung): > 100 µM
GI50 (SF-268 CNS): > 100 µM
TGI (SF-268 CNS): > 100 µM

O=C1CC(CC(OCc2ccccc2)C(OCc2ccccc2)C(COCc2ccccc2)OCc2ccccc2)CC(=O)N1 (configuration not stated)
GI50 (BT-549 breast): > 100 µM and 12.6 µM
TGI (BT-549 breast): > 100 µM and 25.3 µM
TGI (K-562 leukemia): > 100 µM
TGI (HOP-92 NSCLC): > 100 µM
GI50 (SF-539 CNS): > 100 µM and 16.8 µM
TGI (SF-539 CNS): > 100 µM and 35.5 µM
GI50 (SK-MEL-5 melanoma): > 100 µM and 12.6 µM
TGI (SK-MEL-5 melanoma): > 100 µM and 25.6 µM
TGI (NCI-H460 lung): > 100 µM and 97.7 µM
GI50 (RXF 393 renal): 24.5 µM and 2.72 µM
TGI (RXF 393 renal): > 100 µM and 15 µM
GI50 (SN12C renal): > 100 µM and 18.6 µM
TGI (SN12C renal): > 100 µM and 54.1 µM
GI50 (NCI-H23 lung): > 100 µM and 18.6 µM
TGI (NCI-H23 lung): > 100 µM
GI50 (SF-268 CNS): > 100 µM and 11.2 µM
TGI (SF-268 CNS): > 100 µM and 65.3 µM

O=c1oc2ccc(Br)cc2c(=O)n1-c1ccc(Cl)cc1F
GI50 (BT-549 breast): 0.48 µM
TGI (BT-549 breast): 2.49 µM
GI50 (K-562 leukemia): 0.646 µM
TGI (K-562 leukemia): > 100 µM
GI50 (HOP-92 NSCLC): 0.179 µM
TGI (HOP-92 NSCLC): 0.618 µM
GI50 (SF-539 CNS): 0.854 µM
TGI (SF-539 CNS): 6.4 µM
GI50 (SK-MEL-5 melanoma): 0.323 µM
TGI (SK-MEL-5 melanoma): 1.08 µM
GI50 (NCI-H460 lung): 0.739 µM
TGI (NCI-H460 lung): 10.7 µM
GI50 (RXF 393 renal): 1.05 µM
TGI (RXF 393 renal): 4.47 µM
GI50 (SN12C renal): 0.82 µM
TGI (SN12C renal): 5.16 µM
GI50 (NCI-H23 lung): 1.03 µM
TGI (NCI-H23 lung): 4.77 µM
GI50 (SF-268 CNS): 0.917 µM
TGI (SF-268 CNS): 9.23 µM

Cc1sc2c(c1C)C(c1ccc(Cl)cc1)=N[C@@H](CC(=O)NCCCN1CCN(C)CC1)c1nnc(C)n1-2
GI50 (BT-549 breast): 3.51 µM
TGI (BT-549 breast): > 100 µM
GI50 (K-562 leukemia): 0.299 µM
TGI (K-562 leukemia): > 100 µM
GI50 (HOP-92 NSCLC): 0.032 µM
TGI (HOP-92 NSCLC): > 25.2 µM
GI50 (SF-539 CNS): 0.607 µM
TGI (SF-539 CNS): > 100 µM
GI50 (SK-MEL-5 melanoma): 6.36 µM
TGI (SK-MEL-5 melanoma): > 100 µM
GI50 (NCI-H460 lung): > 63.2 µM
TGI (NCI-H460 lung): > 100 µM
GI50 (RXF 393 renal): 2.08 µM
TGI (RXF 393 renal): > 100 µM
GI50 (SN12C renal): 7.36 µM
TGI (SN12C renal): > 100 µM
GI50 (NCI-H23 lung): 5.67 µM
TGI (NCI-H23 lung): > 100 µM
GI50 (SF-268 CNS): 30.3 µM
TGI (SF-268 CNS): > 100 µM
